In ChEMBL document CHEMBL1201862, “PubChem BioAssay data set” (2004):
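Compound exposure: 48 hours, 5 concentrations, 96-well plates. Abbreviation: GI50, concentration required for 50% inhibition of growth.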 Active and inactive are the calls of the source. Cut-off read from the data, not from the text of the source: active = GI50 up to about 1.1 µM and inactive = higher.

Assays:
Experiment in all cases: inhibition of tumour cell growth, NCI panel, 48 h
BT-549 = test system: BT-549
CAKI-1 = test system: CAKI-1
CCRF-CEM = test system: CCRF-CEM
HT-29 = test system: HT-29
KM12 = test system: KM12
MCF7 = test system: MCF7
MDA-MB-435 = test system: MDA-MB-435
MOLT-4 = test system: MOLT-4
NCI-H460 = test system: NCI-H460
NCI/ADR-RES = test system: NCI/ADR-RES
OVCAR-4 = test system: OVCAR-4
OVCAR-8 = test system: OVCAR-8
RXF 393 = test system: RXF 393
SF-539 = test system: SF-539
SK-MEL-2 = test system: SK-MEL-2
SN12C = test system: SN12C
T47D = test system: T47D
786-0 = test system: 786-0
A549 = test system: A549

Measured: GI50

CCOC(=O)CC1CCN(C(=O)c2ccccc2)C2Cc3c([nH]c4ccccc34)C12C[N+](=O)[O-] (stereo not given)
inactive: BT-549 > 100 µM | CAKI-1 62.2 µM | CCRF-CEM 12.6 µM | HT-29 62.2 µM | KM12 71 µM | MCF7 41 µM | MDA-MB-435 97.3 µM | MOLT-4 35 µM | NCI-H460 65.6 µM | NCI/ADR-RES 49.4 µM | OVCAR-4 > 100 µM | OVCAR-8 79.3 µM | RXF 393 77.1 µM | SF-539 > 100 µM | SK-MEL-2 > 100 µM | SN12C > 100 µM | T47D 54.3 µM

CC(C)=CCC[C@@H](C)C1=C(O)C(=O)C(C)=C(Nc2ccccc2F)C1=O
inactive: 786-0 21.3 µM | A549 17.2 µM | BT-549 17.5 µM | CAKI-1 16.1 µM | CCRF-CEM 2.39 µM | HT-29 33.3 µM | KM12 15.5 µM | MCF7 24.8 µM | MDA-MB-435 36.7 µM | MOLT-4 5.68 µM | NCI-H460 12 µM | NCI/ADR-RES 3.49 µM | OVCAR-4 15 µM | OVCAR-8 7.19 µM | RXF 393 12.7 µM | SK-MEL-2 18.7 µM | SN12C 15 µM | T47D 14.6 µM

CC12CCC(Br)C(C)(C)C1CC=C1C(=O)OCC1O2 (stereo not given)
inactive: 786-0 19.4 µM | A549 23.6 µM | BT-549 14.9 µM | CAKI-1 11.6 µM | HT-29 19 µM | KM12 14.2 µM | MCF7 6.07 µM | MDA-MB-435 12 µM | MOLT-4 7.05 µM | NCI-H460 14.6 µM | NCI/ADR-RES 20.4 µM | OVCAR-4 16 µM | OVCAR-8 11.6 µM | RXF 393 11.1 µM | SF-539 60.8 µM | SK-MEL-2 13.6 µM | SN12C 18.5 µM | T47D 15.4 µM

O=C(CSC1=NCCN1)c1ccccc1
inactive: 786-0 > 100 µM | A549 > 100 µM | BT-549 > 100 µM | CAKI-1 > 100 µM | HT-29 > 100 µM | KM12 > 100 µM | MCF7 > 100 µM | MDA-MB-435 > 100 µM | MOLT-4 > 100 µM | NCI-H460 > 100 µM | NCI/ADR-RES > 100 µM | OVCAR-4 > 100 µM | OVCAR-8 > 100 µM | RXF 393 > 100 µM | SF-539 > 100 µM | SK-MEL-2 > 100 µM | SN12C > 100 µM | T47D > 100 µM

O=C(O)C(CCc1ccccn1)c1ccccc1 (stereo not given)
inactive: 786-0 > 100 µM | A549 > 100 µM | BT-549 > 100 µM | CAKI-1 > 100 µM | HT-29 > 100 µM | KM12 > 100 µM | MCF7 > 100 µM | MDA-MB-435 > 100 µM | MOLT-4 > 100 µM | NCI-H460 > 100 µM | NCI/ADR-RES > 100 µM | OVCAR-4 > 100 µM | OVCAR-8 > 100 µM | RXF 393 > 100 µM | SF-539 > 100 µM | SK-MEL-2 > 100 µM | SN12C > 100 µM | T47D > 100 µM

COC(=O)CN(CC(=O)NCCCBr)C1CCCCC1N(CC(=O)OC)CC(=O)OC (stereo not given)
inactive: 786-0 > 100 µM | A549 > 100 µM | BT-549 > 100 µM | CAKI-1 > 100 µM | CCRF-CEM > 100 µM | HT-29 > 100 µM | KM12 > 100 µM | MCF7 > 100 µM | MDA-MB-435 > 100 µM | MOLT-4 > 100 µM | NCI-H460 > 100 µM | NCI/ADR-RES > 100 µM | OVCAR-4 > 100 µM | OVCAR-8 > 100 µM | SF-539 > 100 µM | SK-MEL-2 > 100 µM | SN12C > 100 µM | T47D > 100 µM

CN(C)c1ccc(/C=N/n2c(-c3ccccc3)nc3ccccc3c2=O)cc1
inactive: 786-0 > 100 µM | A549 53.5 µM | BT-549 65.8 µM | CAKI-1 29.7 µM | CCRF-CEM 46.8 µM | HT-29 40 µM | KM12 24.8 µM | MCF7 > 100 µM | MDA-MB-435 79.4 µM | MOLT-4 34.4 µM | NCI-H460 35.4 µM | NCI/ADR-RES 21.8 µM | OVCAR-4 47.9 µM | OVCAR-8 41.6 µM | SF-539 > 100 µM | SK-MEL-2 82.2 µM | SN12C 80.9 µM | T47D 15 µM

CCOC(=O)CCCOc1cc(-c2ccccc2F)nc2cc3c(cc12)OCO3
inactive: 786-0 > 100 µM | A549 > 100 µM | BT-549 19.9 µM | CAKI-1 > 100 µM | CCRF-CEM 30.8 µM | HT-29 43.7 µM | KM12 61.9 µM | MCF7 > 100 µM | MDA-MB-435 53.6 µM | MOLT-4 27.3 µM | NCI/ADR-RES 46.8 µM | OVCAR-4 3.71 µM | OVCAR-8 > 100 µM | SF-539 > 100 µM | SK-MEL-2 > 100 µM | SN12C > 100 µM | T47D 25.5 µM

N=C(N)N/N=C(\c1ccc(Cl)cc1)C1CC1
inactive: 786-0 16.9 µM | A549 32.4 µM | BT-549 24.6 µM | CAKI-1 39 µM | HT-29 16.5 µM | KM12 18.5 µM | MCF7 17.1 µM | MDA-MB-435 16.9 µM | NCI-H460 15.6 µM | NCI/ADR-RES 25.4 µM | OVCAR-4 33 µM | OVCAR-8 20.7 µM | RXF 393 33.9 µM | SF-539 17.2 µM | SK-MEL-2 18.3 µM | SN12C 19.1 µM | T47D 19.5 µM

Cc1ccc(C2=Nc3c(N)nc(N)nc3NC(c3ccccc3)C2)cc1 (stereo not given)
inactive: 786-0 13.2 µM | A549 10.2 µM | BT-549 7.23 µM | CAKI-1 14 µM | CCRF-CEM 7.83 µM | HT-29 4.05 µM | MCF7 8.77 µM | MDA-MB-435 1.92 µM | MOLT-4 7.43 µM | NCI/ADR-RES 3.97 µM | OVCAR-4 14.2 µM | OVCAR-8 13.1 µM | RXF 393 7.36 µM | SF-539 12 µM | SN12C 12.2 µM | T47D 13.1 µM

CC#CC#C/C=C1/O[C@]2(CCC(OC(=O)CC(C)C)CO2)[C@@H]2O[C@H]12 (stereo not given in full)
inactive: 786-0 20.9 µM | A549 39.6 µM | BT-549 24.1 µM | CAKI-1 18.2 µM | CCRF-CEM 7.69 µM | HT-29 18.2 µM | KM12 27 µM | MCF7 33 µM | MDA-MB-435 21.1 µM | MOLT-4 18.7 µM | NCI-H460 36.1 µM | NCI/ADR-RES 28.4 µM | OVCAR-4 29.6 µM | OVCAR-8 32.4 µM | RXF 393 21.7 µM | SK-MEL-2 21.6 µM | SN12C 22.2 µM | T47D 20.5 µM

CC1=NC(=Cc2ccccc2O)C(=O)N1n1c(-c2ccccc2)nc2ccccc2c1=O
inactive: 786-0 45.5 µM | A549 35.1 µM | BT-549 57.7 µM | CCRF-CEM 26.6 µM | HT-29 32.4 µM | KM12 67 µM | MCF7 25.6 µM | MDA-MB-435 46.9 µM | MOLT-4 20.6 µM | NCI-H460 30.3 µM | NCI/ADR-RES 33.3 µM | OVCAR-4 27.5 µM | OVCAR-8 33.7 µM | RXF 393 31 µM | SF-539 26.7 µM | SN12C 39.9 µM | T47D 21.5 µM
